Measurements reported in publication PMC11189555, “Aryl amino acetamides prevent Plasmodium falciparum ring development via targeting the lipid-transfer protein PfSTART1” (Nature Communications, 2024).

Columns and labels:
[1] = system: PopE-F10 M-833 resistant clone (PfSTART1 N330K); test: Growth inhibition assay (72 h, LDH activity); assay type: cell-based, Plasmodium falciparum
Description: The drug was then removed, and parasites were allowed to recover. Another cycle of drug treatment (3 μM M-833) was then resumed. The resistant lines were cloned out by limiting dilution (diluting the culture into a 96-well plate to achieve an average of ~0.3 parasites per well), prior to growth inhibition assays and genomic DNA (gDNA) extraction (DNeasy Blood and Tissue kit (Qiagen)[18].
Parasite growth assays with inhibitory compounds were performed as per[11] and are fully described in the Supplementary Information. […]
Growth inhibition assays. Synchronised ring-stage parasites (0.3-0.6% parasitemia, 2% haematocrit) were grown for 72 h in a serial-dilution of the compound under […]
and compound 4. Note that M-833 was first purchased from MolPort (MolPort -002-267-916) then made in-house at WEHI: the differences observed in EC50s across experiments are attributed to the different batches of M -833. For some experiments, 0, 0.25 or 2.5 mM of glucosamine (GlcN) was also added. Experiments were set up in technical duplicates or triplicates. Following a freeze -thaw cycle, lactate dehydrogenase (LDH) activity was assessed as an indicator of parasite growt h 5. 30 μL of parasite culture was incubated for 30 min in the dark with 75 μL Malstat mixture (0.1 M Tris pH 9.0, 20 g/L lactic acid, pH 7.5, 0.2% Triton-X100, 0.5 g/L acetylpyridine adenine dinucleotide (APAD, Sigma), 200 μg/mL nitroblue tetrazolium (NBT; Sigma), 1 μg/mL phenozine ethosulfate (PES; Sigma)). Absorbance was then measured at 650 nm, transformed using the formula below, plotted against the logarithm of the concentrations, and a non-linear regression (log(inhibitor) vs. response, variable slope) was calculated using GraphPad Prism to assess the half-inhibitory […]
Growth inhibition % = (1 − average(sample)− average(uRBC)) ∗ 100 […]
The DMSO samples were also used to assess growth of parasite in the presence of 0.25 and 2.5 mM GlcN (normalised by DMSO in 0 mM GlcN). […]

[2] = target: T1, recombinant PfSTART1(WT) (I149-V394) (Plasmodium falciparum, UniProt Q8I298); test: Isothermal titration calorimetry; assay type: binding; details: for Differential Power DP_Y / ΔH NDH_Y: PfSTART(WT), ITC replicate data
T1 construct: START domain alone (I149-V394 from PF3D7_0104200); 8xHis tag (N); TEV protease cleavage site (N); made in house; host or cells: Sf21 insect cells (baculovirus)
T1 sequence (Q8I298 entry or part of it): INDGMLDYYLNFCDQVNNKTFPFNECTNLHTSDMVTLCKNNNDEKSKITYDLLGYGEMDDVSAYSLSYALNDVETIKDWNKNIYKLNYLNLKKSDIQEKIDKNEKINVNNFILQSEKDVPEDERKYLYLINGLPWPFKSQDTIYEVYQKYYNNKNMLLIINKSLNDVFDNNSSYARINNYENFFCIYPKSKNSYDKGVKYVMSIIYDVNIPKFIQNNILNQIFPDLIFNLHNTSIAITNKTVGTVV
Excerpt: Codon optimised (Spodoptera frugiperda, Sf) START domain alone (I149-V394 from PF3D7_0104200) was synthesised by Integrated DNA Technologies and cloned into a modified baculovirus transfer vector (pAcGP67-A) with a N-terminal GP67-signal sequence, 8xHis tag, and TEV protease cleavage site. Recombinant baculovirus was generated via the flashBACTM Baculovirus Expression System using Sf21 cells (Life Technologies), amplified to reach a third passage viral stock, and 1.5% used to infect Sf21 for protein expression. After incubation for three days at 28 °C, media containing secreted protein was harvested by centrifugation and supplemented with 50 mM Tris pH 7.5, 20 mM MgCl2, 100 mM NaCl, and 10-20 mM imidazole. The supplemented protein sample was purified by nickel affinity chromatography (HisTrap Excel 5 mL, Cytiva), and eluted with 20 mM Tris pH 7.5, 500 mM NaCl, 300-500 mM imidazole. Eluted fractions were further purified using size-exclusion chromatography (Superdex S75 16/600 or Superdex 10/300, Cytiva) with the column pre-equilibrated with 20 mM HEPES pH 7.5, 150 mM NaCl, and peak-containing fractions concentrated and stored at -80 °C until required. If required, prior to ITC, a second size-exclusion chromatography step was performed to remove soluble aggregates.
ITC experiments were performed on a MicroCal PEAQ-ITC calorimeter at 25 °C, with a stirring speed of 750 rpm and a reference power of 5 μcal/sec. 500 μM M-833 series inhibitor solutions were diluted to 10 μM in 50 mM NaPO4^-3 (pH 7.4), 150 mM NaCl with a final DMSO concentration of 2% (v/v) (cell sample). PfSTART1 protein was dialysed extensively against 50 mM NaPO4^-3 (pH 7.4), 150 mM NaCl, before diluting to 90 μM in the same buffer with 2% (v/v) DMSO (syringe sample). The first injection was 0.4 μL over a 0.8 s duration, and the remaining 19 injections were 2 μL of 4 s duration, with 150 s injection spacing. Data were collected and analysed using the PEAQ-ITC software (MicroCal) and fit by a single site binding model. A fitted offset (constant control heat) was also applied to the integrated heat.

SMILES: Cc1cc(Cl)c(S(=O)(=O)N2CCCC2)cc1OCC(=O)NC1CCCCC1 [M-833]
- inhibition at 10 µM ([1]; Plasmodium falciparum, Pop E-F10 replicate 1, M-833 10 uM): 32.5%
- Normalised to DMSO ([1]; Pop E-F10 replicate 1, M-833 0.0390625 uM): 103
- Normalised to DMSO ([1]; Pop E-F10 replicate 1, M-833 0.078125 uM): 100.769
- Normalised to DMSO ([1]; Pop E-F10 replicate 1, M-833 0.3125 uM): 101.424
- Normalised to DMSO ([1]; Pop E-F10 replicate 1, M-833 0.625 uM): 100.047
- Normalised to DMSO ([1]; Pop E-F10 replicate 1, M-833 1.25 uM): 98.7091
- Normalised to DMSO ([1]; Pop E-F10 replicate 1, M-833 2.5 uM): 96.4594
- Normalised to DMSO ([1]; Pop E-F10 replicate 1, M-833 5 uM): 86.4832
- Normalised to DMSO ([1]; Pop E-F10 replicate 1, M-833 10 uM): 67.4893
- (av-uRBC) / (DMSO-uRBC) x100 ([1]; PopE-F10, 3.04832 nM, biological replicate 1): 111.434
- (av-uRBC) / (DMSO-uRBC) x100 ([1]; PopE-F10, 3.04832 nM, biological replicate 2): 114.392
- (av-uRBC) / (DMSO-uRBC) x100 ([1]; PopE-F10, 3.04832 nM, biological replicate 3): 116.409
- (av-uRBC) / (DMSO-uRBC) x100 ([1]; PopE-F10, 9.14495 nM, biological replicate 1): 115.6
- (av-uRBC) / (DMSO-uRBC) x100 ([1]; PopE-F10, 9.14495 nM, biological replicate 2): 114.392
- (av-uRBC) / (DMSO-uRBC) x100 ([1]; PopE-F10, 9.14495 nM, biological replicate 3): 132.26
- (av-uRBC) / (DMSO-uRBC) x100 ([1]; PopE-F10, 27.4348 nM, biological replicate 1): 114.804
- (av-uRBC) / (DMSO-uRBC) x100 ([1]; PopE-F10, 27.4348 nM, biological replicate 2): 115.461
- (av-uRBC) / (DMSO-uRBC) x100 ([1]; PopE-F10, 27.4348 nM, biological replicate 3): 121.608
- (av-uRBC) / (DMSO-uRBC) x100 ([1]; PopE-F10, 82.3045 nM, biological replicate 1): 112.716
- (av-uRBC) / (DMSO-uRBC) x100 ([1]; PopE-F10, 82.3045 nM, biological replicate 2): 116.595
- (av-uRBC) / (DMSO-uRBC) x100 ([1]; PopE-F10, 82.3045 nM, biological replicate 3): 121.195
- (av-uRBC) / (DMSO-uRBC) x100 ([1]; PopE-F10, 246.914 nM, biological replicate 1): 110.71
- (av-uRBC) / (DMSO-uRBC) x100 ([1]; PopE-F10, 246.914 nM, biological replicate 2): 117.042
- (av-uRBC) / (DMSO-uRBC) x100 ([1]; PopE-F10, 246.914 nM, biological replicate 3): 120.187
- (av-uRBC) / (DMSO-uRBC) x100 ([1]; PopE-F10, 740.741 nM, biological replicate 1): 108.694
- (av-uRBC) / (DMSO-uRBC) x100 ([1]; PopE-F10, 740.741 nM, biological replicate 2): 116.419
- (av-uRBC) / (DMSO-uRBC) x100 ([1]; PopE-F10, 740.741 nM, biological replicate 3): 115.329
- (av-uRBC) / (DMSO-uRBC) x100 ([1]; PopE-F10, 2222.22 nM, biological replicate 1): 107.392
- (av-uRBC) / (DMSO-uRBC) x100 ([1]; PopE-F10, 2222.22 nM, biological replicate 2): 111.175
- (av-uRBC) / (DMSO-uRBC) x100 ([1]; PopE-F10, 2222.22 nM, biological replicate 3): 110.489
- (av-uRBC) / (DMSO-uRBC) x100 ([1]; PopE-F10, 6666.67 nM, biological replicate 1): 97.5292
- (av-uRBC) / (DMSO-uRBC) x100 ([1]; PopE-F10, 6666.67 nM, biological replicate 2): 97.5177
- (av-uRBC) / (DMSO-uRBC) x100 ([1]; PopE-F10, 6666.67 nM, biological replicate 3): 73.4437
- (av-uRBC) / (DMSO-uRBC) x100 ([1]; PopE-F10, 20000 nM, biological replicate 1): 52.2279
- (av-uRBC) / (DMSO-uRBC) x100 ([1]; PopE-F10, 20000 nM, biological replicate 2): 44.7285
- (av-uRBC) / (DMSO-uRBC) x100 ([1]; PopE-F10, 20000 nM, biological replicate 3): 18.154
- Fold change compared to 3D7 ([1]; Supplementary Table 1, EC50 on PopE-F10 vs 3D7): > 128 fold
- EC50 ([1]; Supplementary Table 1, PopE-F10 (N330K), 72 h): > 10000 nM
- Kd ([2]; ITC, 25 °C, 90 µM PfSTART1 titrated into 10 µM compound, n = 2, ± SD): 42 ± 12 nM
- ΔH ([2]; ITC, 25 °C, n = 2, ± SD): -7.6 ± 0.2 kcal/mol
- −TΔS ([2]; ITC, 25 °C, n = 2, ± SD): -2.5 ± 0.4 kcal/mol
- Differential Power DP_Y ([2]; DP_X 0.083333): -0.001604
- Differential Power DP_Y ([2]; DP_X 0.1): -0.001099
- ΔH NDH_Y ([2]; NDH_X 0.104703): -8.4
- ΔH NDH_Y ([2]; NDH_X 0.192876): -6.335
